Measurements as given in US7872030B2, “Use of 2-[5-(4-fluorophenyl)-3-pyridylmethylaminomethyl]-chromane and its physiologically acceptable salts” (Merck Patent GmbH, priority 2001, dated 2011).

How the values were obtained:
dopamine D2 receptor = dopamine D2 receptor (Homo sapiens, UniProt P14416); assay: D2 antagonism; conditions: under increased doses
[1] = system: Parkinsonian cynomolgus monkey; assay: Adverse effects of chronic l-dopa therapy in MPTP Parkinsonian cynomolgus monkey; type: in vivo; conditions: MPTP monkeys chronically treated with l-dopa
Experimental: Treatment of adverse effects of conventional anti-Parkinsonian drugs as defined above are determined in a modification of the animal model of the Parkinsonian cynomolgus monkey according to P. J. Blanchet et al., Exp. Neurology 1998; 153: 214-222. Monkeys render parkinsonian by repeated injections of 1-methyl-4-phenyl-1,2,3,6-tetrahydropyridine (MPTP). The Parkinsonian monkeys are chronically treated with the standard l-dopa therapy according to P. J. Blanchet et al., Mov. Disord., 1998; 13: 798-802. Longterm treatment with l-dopa induces extrapyramidal motor side effects and psychotic states which are both qualitatively and quantitatively, assessed by the Abnormal Involuntary Movement Scale (P. J. Blanchet et al., Mov. Disord. 1998; 13: 798-802) for different body parts (face, neck, trunk, each limb) and by rating for psychotic states by observing the monkey's attention, reactivity and mobility.

[2] = system: reserpinized rat or mouse; assay: Reserpinized rat or mouse (akinesia); type: in vivo; conditions: 24 h after reserpine; for distance travelled and time active: activity meters
Experimental: A typical animal model is the reserpinized rat or mouse (e.g. […]. Neural Transm.-Park. Dis. Dement. Sect., 1994; 7: 133-142; M. Gossel et al., J. Neural Transm.-Park. Dis. Dement. Sect., 1995; 10: 27-39; N. R. Hughes et al., Mov. Disord., 1998; 13: 228-233). Reserpine is a potent depleter of monoamines and produces nearly complete akinesia in both species. Prominent 24 h after application, the distance travelled and the time active is nearly zero as measured in conventional activity meters.

[3] = system: rats with nigrostriatal degeneration; assay: Striatonigral degeneration in the rat, turning behavior; type: in vivo; conditions: 6-hydroxydopamine plus quinolinic acid lesioned rats
Description: Another more recent animal model is the striatonigral degeneration approach in the rat according to […] et al., J. Neural Transm. Suppl., 1999; 55: 103-113. Rats receive an unilateral injection of 6-hydroxydopamine into the left medial forebrain bundle followed by an injection of quinolinic acid into the ipsilateral striatum inducing nigrostriatal degeneration. The degeneration results in turning behavior to a challenge with dopaminomimetics such as apomorphine or amphetamine. Turning behavior is measured by an automated recorder.

[4] = system: rats challenged with haloperidol; assay: Neuroleptics-induced muscle rigidity in rats; conditions: rat, in vivo
Description: A typical animal model is neuroleptics-induced muscle rigidity in rats according to S. Wolfarth et al, Arch. Pharmacol. 1992; 345: 209-212. Rats are challenged with the conventional neuroleptic drug haloperidol which enhances muscle tone. Muscle tone is electromechanically measured as the resistence to passive flexion and extension of the hind limb.

Pietrain pig = assay: Campus Syndrome in the Pietrain pig (tremor); type: in vivo
Description: Typical genetic models in mutant animals are the Campus Syndrome in the Pietrain pig according to A. Richter et al. (Exp. Neurology, 1995; 134: 205-213) or the Weaver mutant mouse according to J. R. Simon and B. Ghetti (Mol. Neurobiol., 1994; 9: 183-189). In the Campus Syndrome model, these mutant pigs show a high-frequency tremor when standing and during locomotion, but not while lying at rest. Assessment of tremor is made by accelerometric recording. In the Weaver mutant mouse, degenerative cerebellar atrophy is fould in association with tremor, gait instability, and toppling over the sides after a few steps.

[5] = system: oxotremorine-induced tremor; assay: Oxotremorine-induced tremor; conditions: in vivo
Experimental: A typical animal model for drug-induced tremors is the oxotremorine-induced tremor (e.g. H. Hallberg and O. Almgren, Acta Physiol. Scand., 1987; 129: 407-13; J. G. Clement and W. R. Dyck, J. Pharmacol. Meth., 1989; 22: 25-36). Oxotremorine induces tremor which is measured by a rating scale.

Sequence of dopamine D2 receptor (P14416 whole entry, species assumed): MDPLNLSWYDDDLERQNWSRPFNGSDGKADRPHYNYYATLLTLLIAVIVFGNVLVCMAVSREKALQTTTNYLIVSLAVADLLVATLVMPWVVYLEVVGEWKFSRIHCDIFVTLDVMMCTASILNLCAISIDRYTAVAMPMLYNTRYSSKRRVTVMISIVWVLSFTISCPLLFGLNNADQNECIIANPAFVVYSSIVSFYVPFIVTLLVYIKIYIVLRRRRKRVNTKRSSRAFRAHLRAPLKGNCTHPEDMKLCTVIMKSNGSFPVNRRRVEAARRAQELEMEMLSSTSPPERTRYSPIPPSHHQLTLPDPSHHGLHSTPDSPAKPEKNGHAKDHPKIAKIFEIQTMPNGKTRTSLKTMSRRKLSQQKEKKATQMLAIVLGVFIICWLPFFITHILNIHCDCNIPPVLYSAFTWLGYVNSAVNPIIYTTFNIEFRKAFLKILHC

Structure (SMILES) | D2 antagonism (dopamine D2 receptor) | overall choreiform dyskinesias and dystonic dyskinesias (Abnormal Involuntary Movement Scale) [1] | psychotic states (attention, reactivity, mobility rating) [1] | akinesia [2] | distance travelled and time active [2] | turning behavior induced by apomorphine or amphetamine [3] | muscle tone enhanced by haloperidol (resistance to passive flexion and extension of the hind limb) [4] | tremor when standing and during locomotion (Pietrain pig) | oxotremorine-induced tremors (rating scale) [5]
Fc1ccc(-c2cncc(CNC[C@@H]3CCc4ccccc4O3)c2)cc1 [(S)-(+)-2-[5-(4-fluorophenyl)-3-pyridylmethylaminomethyl]-chromane] | exhibit a D2 antagonism | reduced | reduced | dose-dependently reduced akinesia | restored distance travelled and time active to about the level of normal animals | dose-dependently antagonized | decrease the mucle tone enhanced by haloperidol | reduce disabling tremor | inhibit oxotremorine-induced tremors
Fc1ccc(-c2cncc(CNCC3CCc4ccccc4O3)c2)cc1 (racemic) [(R/S)-(−/+)-2-[5-(4-fluorophenyl)-3-pyridylmethylaminomethyl]-chromane] | exhibit a D2 antagonism | reduced | reduced | dose-dependently reduced akinesia | restored distance travelled and time active to about the level of normal animals | dose-dependently antagonized | decrease the mucle tone enhanced by haloperidol | reduce disabling tremor | inhibit oxotremorine-induced tremors
